In the SangsterLogP compilation one finds logP data, which are given here for 15 compounds.

`Cc1ccc(C)c2c(C)cccc12` gave a lipophilicity (logP) of 4.48.
The figure for `Cc1cccc2c(C)cccc12` is 4.22; for `Cc1ccc(C)c2ccccc12` it is 4.22.
As for `Cc1ccc2ccc(C)cc2c1`, the lipophilicity (logP) turned out to be 4.37.
`Cc1cc(C)c2ccccc2c1C`: the logP was 4.49. The logP values of the last two compounds are within 0.2 log units of each other.
In turn, `Cc1ccc2cc(C)c(C)cc2c1` gave a logP of 4.7.
Then `Cc1ccc2cccc(C)c2c1`, with 4.19; and `Cc1ccc2c(C)cccc2c1`, with 4.27.
Then `Cc1ccc2ccccc2c1`, with 3.96.
Then `Cc1cc(C)c2cc(C)ccc2c1`, with 4.38; and `Cc1ccc2c(C)ccc(C)c2c1`, with 4.55.
As to `Cc1ccc2c(C)c(C)ccc2c1C`, the logP came to 4.95.
Then `Cc1cc(C)c2c(C)cccc2c1`, with 4.52; and `Cc1ccc2cc(C)ccc2c1`, with 4.39; and `Cc1cc2c(C)ccc(C)c2cc1C`, with 4.74.
